This note sets out measurements from patent US12115218B2 (priority 2018, dated 2024).

This assay concerns Inactivated porcine circovirus type 2 vaccine (SH strain) antigen. Further details: species or system mice. The settings on record: mouse, in vivo.

Counter-ions that a name gives are not always drawn.

On to `c1ccc([C@H]2CN3CCSC3=N2)cc1` [levamisole aqueous solution, levamisole hydrochloride], for which the “Antibody titers in mice” value is “no adjuvant synergistic effect was produced”.
For polyinosinic acid-polycytidylic acid, the “Antibody titers in mice” value is given as “no adjuvant synergistic effect was produced”.
